Tests used:
[1] = test system: B-cells isolated from PBMC's; experiment: Chymotrypsin-like ProteasomeGlo assay in B-cells isolated from PBMCs; assay type: cell-based, human; conditions: Homo sapiens; B-cells isolated from PBMC's; read-out: Pglo B-Cell
Procedure, shortened: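 Human B-cells were negatively isolated from buffy-coat PBMCs by density gradient, RBC lysis and Miltenyi magnetic separation. Cells were plated and compounds added by acoustic transfer after 1:100 dilution, with DMSO controls and medium-only wells. Chymotrypsin-like proteasome activity was read by luminescent ProteasomeGlo to derive IC50.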

B cell = B cell diff. (Table 4, method not given); assay type: cell-based; conditions: B-cell
PBMC = PBMC IL 17 stim. (Table 4, method not given); assay type: cell-based
Karpas cells = experiment: Glo assay of Karpas cells (Table 3; ProteasomeGlo plating scheme); assay type: cell-based; conditions: read-out: Pglo Karpas
Procedure, shortened: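 Cells plated in 384 wells; compound, DMSO, staurosporine transferred by ECHO; 105 min, 37° C., 5% CO2; Proteasome-Glo (Suc-LLVY-Glo) reagent added; dark 10-15 min; luminescence; IC50 nM.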

| SMILES | IC50 (B cell) [nM] | IC50 (Karpas cells) [nM] | IC50 [1] [nM] | IC50 (PBMC) [nM] |
| --- | --- | --- | --- | --- |
| Cc1ccc2cc1CNC(=O)[C@H](CCc1ccccc1)NC(=O)[C@@H](Nc1ccccn1)CC(=O)N1CCCC(CCO2)C1 (stereo partly drawn) [Compound 36, (9S,12S)-5^4-methyl-9-phenethyl-12-(pyridin-2-ylamino)-4-oxa-7,10-diaza-1(3,1)-piperidina-5(1,3)-benzenacyclotetradecaphane-8,11,14-trione] | < 100 | – | 100 to 500 | – |
| Cc1ccc2cc1CNC(=O)[C@H](CCc1ccccc1)NC(=O)[C@@H](NC(=O)c1ccncc1)CC(=O)N1CCCC(CCO2)C1 (stereo partly drawn) [Compound 42, N-((9S,12S)-5^4-methyl-8,11,14-trioxo-9-phenethyl-4-oxa-7,10-diaza-1(3,1)-piperidina-5(1,3)-benzenacyclotetradecaphane-12-yl)isonicotinamide] | < 100 | – | < 100 | – |
| COc1ccc(CC(=O)N[C@H]2CC(=O)N3CCCC(CCOc4ccc(C)c(c4)CNC(=O)[C@H](CCc4ccccc4)NC2=O)C3)cc1OC (stereo partly drawn) [Compound 63, 2-(3,4-dimethoxyphenyl)-N-((9S,12S)-5^4-methyl-8,11,14-trioxo-9-phenethyl-4-oxa-7,10-diaza-1(3,1)-piperidina-5(1,3)-benzenacyclotetradecaphane-12-yl)acetamide] | – | < 100 | < 100 | < 100 |
| Cc1ccc2cc1CNC(=O)[C@H](CCc1ccccc1)NC(=O)[C@@H](NC(=O)CN1CCOCC1)CC(=O)N1CCCC(CCO2)C1 (stereo partly drawn) [Compound 88, N-((9S,12S)-5^4-methyl-8,11,14-trioxo-9-phenethyl-4-oxa-7,10-diaza-1(3,1)-piperidina-5(1,3)-benzenacyclotetradecaphane-12-yl)-2-morpholinoacetamide] | – | < 100 | < 100 | – |
| Cc1ccc2cc1CNC(=O)[C@H](CCc1ccccc1)NC(=O)[C@@H](NC(=O)[C@H](C)c1ccccc1)CC(=O)N1CCCC(CCO2)C1 (stereo partly drawn) [Compound 80, (2R)-N-((9S,12S)-5^4-methyl-8,11,14-trioxo-9-phenethyl-4-oxa-7,10-diaza-1(3,1)-piperidina-5(1,3)-benzenacyclotetradecaphane-12-yl)-2-phenylpropanamide] | – | < 100 | < 100 | – |
| Cc1ccc2cc1CNC(=O)[C@H](CCc1ccccc1)NC(=O)[C@@H](Nc1nc3ccccc3[nH]1)CC(=O)N1CCCC(CCO2)C1 (stereo partly drawn) [Compound 45, (9S,12S)-12-((1H-benzo[d]imidazol-2-yl)amino)-5^4-methyl-9-phenethyl-4-oxa-7,10-diaza-1(3,1)-piperidina-5(1,3)-benzenacyclotetradecaphane-8,11,14-trione] | < 100 | – | 100 to 500 | – |

Second part, led by results:

| IC50 (B cell) [nM] | IC50 (Karpas cells) [nM] | SMILES | IC50 [1] [nM] | IC50 (PBMC) [nM] |
| --- | --- | --- | --- | --- |
| < 100 | – | Cc1ccc2cc1CNC(=O)[C@H](CCc1ccccc1)NC(=O)[C@@H](N1C(=O)CCC1=O)CC(=O)N1CCCC(CCO2)C1 (stereo partly drawn) [Compound 43, (9S,12S)-12-(2,5-dioxopyrrolidin-1-yl)-5^4-methyl-9-phenethyl-4-oxa-7,10-diaza-1(3,1)-piperidina-5(1,3)-benzenacyclotetradecaphane-8,11,14-trione] | < 100 | – |
| 100 to 500 | – | Cc1ccc2cc1CNC(=O)[C@H](CCc1ccccc1)NC(=O)CCC(=O)N1CCCC(CCO2)C1 (stereo partly drawn) [Compound 13, (9S)-5^4-methyl-9-phenethyl-4-oxa-7,10-diaza-1(3,1)-piperidina-5(1,3)-benzenacyclotetradecaphane-8,11,14-trione] | < 100 | – |
| – | < 100 | COc1ccc(CC(=O)N[C@H]2CC(=O)N3CCCC(CCOc4ccc(C)c(c4)CNC(=O)[C@H](CCc4ccccc4)NC2=O)C3)cc1 (stereo partly drawn) [Compound 83, 2-(4-methoxyphenyl)-N-((9S,12S)-5^4-methyl-8,11,14-trioxo-9-phenethyl-4-oxa-7,10-diaza-1(3,1)-piperidina-5(1,3)-benzenacyclotetradecaphane-12-yl)acetamide] | < 100 | – |
| – | < 100 | Cc1ccc2cc1CNC(=O)[C@H](CCc1ccccc1)NC(=O)[C@@H](N)CC(=O)N1CCCC(CCO2)C1 (stereo partly drawn) [Compound 8, (9S,12S)-12-amino-5^4-methyl-9-phenethyl-4-oxa-7,10-diaza-1(3,1)-piperidina-5(1,3)-benzenacyclotetradecaphane-8,11,14-trione] | < 100 | – |
| < 100 | – | Cc1ccc2cc1CNC(=O)[C@H](CCc1ccccc1)NC(=O)[C@@H](NS(C)(=O)=O)CC(=O)N1CCCC(CCO2)C1 (stereo partly drawn) [Compound 37, N-((9S,12S)-5^4-methyl-8,11,14-trioxo-9-phenethyl-4-oxa-7,10-diaza-1(3,1)-piperidina-5(1,3)-benzenacyclotetradecaphane-12-yl)methanesulfonamide] | < 100 | – |
| – | 100 to 500 | Cc1ccc2cc1CNC(=O)[C@H](CCc1ccccc1)NC(=O)[C@@H](NC(=O)c1n[nH]c3ccccc13)CC(=O)N1CCCC(CCO2)C1 (stereo partly drawn) [Compound 60, N-((9S,12S)-5^4-methyl-8,11,14-trioxo-9-phenethyl-4-oxa-7,10-diaza-1(3,1)-piperidina-5(1,3)-benzenacyclotetradecaphane-12-yl)-1H-indazole-3-carboxamide] | 100 to 500 | – |
| < 100 | – | Cc1ccc2cc1CNC(=O)[C@H](CCc1ccccc1)NC(=O)CCCCC(=O)N1CCCC(CCO2)C1 (stereo partly drawn) [Compound 16, (9S)-5^4-methyl-9-phenethyl-4-oxa-7,10-diaza-1(3,1)-piperidina-5(1,3)-benzenacyclohexadecaphane-8,11,16-trione] | < 100 | < 100 |
| – | 100 to 500 | Cc1ccc2cc1CNC(=O)[C@H](Cc1c[nH]c3ccccc13)NC(=O)CCC(=O)N1CCCC(CCO2)C1 (stereo partly drawn) [Compound 77, (9S)-9-((1H-indol-3-yl)methyl)-5^4-methyl-4-oxa-7,10-diaza-1(3,1)-piperidina-5(1,3)-benzenacyclotetradecaphane-8,11,14-trione] | 100 to 500 | – |

— US20240415819A1, “MACROCYCLIC COMPOUNDS AS PROTEASOME SUBUNIT BETA TYPE-5 INHIBITORS” (Lead Discovery Center GmbH, priority 2021, published 2024)
